According to ChEMBL document CHEMBL4425139, “Discovery, characterization, and lead optimization of 7-azaindole non-nucleoside HIV-1 reverse transcriptase inhibitors” (Bioorg Med Chem Lett, 2016):

Key:
PBMC = test: (§1) Cytotoxicity against HIV1 infected human PBMC cells assessed as reduction in cell viability after 7 days by MTT assay; format: cell-based; conditions: pbmc, 168 h
CCRF-CEM = test: (§2) Cytotoxicity against HIV1 infected human CEM cells assessed as reduction in cell viability after 7 days by MTT assay; format: cell-based; conditions: ccrf-cem, 168 h
Vero = test: (§3) Cytotoxicity against HIV1 infected African green monkey Vero cells assessed as reduction in cell viability after 7 days by MTT assay; format: cell-based; conditions: chlorocebus sabaeus, vero, 168 h
[1] = target: T1, Human immunodeficiency virus type 1 reverse transcriptase (Human immunodeficiency virus 1, UniProt Q72547); test: Inhibition of HIV1 RT using 17-mer DNA/Alexa Fluor 488 5'-end labeled DNA/Alexa Fluor 555-aha-dUTP as primer/template/substrate preincubated for 10 mins followed substarte addition measured after 30 mins by FRET assay
[2] = system: Human immunodeficiency virus 1; test: Antiviral activity against HIV-1 LAI infected in human PBM cells after 7 days; format: functional, organism-based; conditions: Human immunodeficiency virus 1, LAI, 168 h
[3] = target: T1, Human immunodeficiency virus type 1 reverse transcriptase; test: Inhibition of HIV1 RT using A5'-end 32P-labeled 24-mer primer/a48-mer template preincubated for 5 mins followed by 10 uM nucleotides addition measured after 5 mins by gel-based primer extension assay
[4] = target: T1, Human immunodeficiency virus type 1 reverse transcriptase; test: Inhibition of HIV1 RT using A5'-end 32P-labeled 24-mer primer/a48-mer template preincubated for 5 mins followed by 25 uM nucleotides addition measured after 2 mins by gel-based primer extension assay
[5] = target: T1, Human immunodeficiency virus type 1 reverse transcriptase; test: Inhibition of HIV1 RT using A5'-end 32P-labeled 24-mer primer/a48-mer template preincubated for 5 mins followed by 1 uM nucleotides addition measured after 10 mins by gel-based primer extension assay
[6] = target: T1, Human immunodeficiency virus type 1 reverse transcriptase; test: Inhibition of HIV1 RT using A5'-end 32P-labeled 24-mer primer/a48-mer template preincubated for 5 mins followed by 0.5 uM nucleotides addition measured after 15 mins by gel-based primer extension assay
[7] = system: Human immunodeficiency virus 1; test: Ratio of IC50 for HIV1 RT K103N mutant to IC50 for wild type HIV1 RT
[8] = system: Human immunodeficiency virus 1; test: Ratio of IC50 for HIV1 RT E138K mutant to IC50 for wild type HIV1 RT
[9] = system: Human immunodeficiency virus 1
[10] = Ratio of CC50 for human PBM cells to EC50 for HIV-1 LAI infected in human PBM cells
[11] = target: Human immunodeficiency virus type 1 reverse transcriptase (Human immunodeficiency virus 1, UniProt Q72547, K103N)
[12] = target: Human immunodeficiency virus type 1 reverse transcriptase (Human immunodeficiency virus 1, UniProt Q72547, V108I)
[13] = target: Human immunodeficiency virus type 1 reverse transcriptase (Human immunodeficiency virus 1, UniProt Q72547, E138K)
[14] = as §1; format: cell-based; conditions: HIV1 infected PBMC cells
[15] = as §2; format: cell-based, CCRF-CEM; conditions: HIV1 infected CEM (CCRF-CEM) cells
[16] = as §3; format: cell-based; conditions: chlorocebus sabaeus, HIV1 infected Vero cells

SMILES | CC50 (PBMC) | CC50 (CCRF-CEM) | CC50 (Vero) | IC50 [1] | EC50 [2] | Ratio CC50/EC50 [10] | further results
CC1(C)CC(=O)c2c(nc3c(c(C#N)cn3Cc3ccccc3)c2-c2ccccc2)C1 | > 100 µM | > 100 µM | > 100 µM | 0.73 µM | 0.35 µM | >100 | IC50 [3]: 0.96 µM; IC50 [4]: 0.73 µM; IC50 [5]: 8.9 µM; IC50 [6]: 10 µM; Ratio IC50 [7]: 28; Ratio IC50 [8]: 211; Ratio IC50 [9]: 11; IC50 [11]: 9.2 µM; IC50 [12]: > 100 µM; IC50 [13]: 69 µM
C=CCn1cc(C#N)c2cc(C#N)cnc21 | > 100 µM | > 100 µM | > 100 µM | > 100 µM | 0.76 µM | >100 | 
CC(=O)c1c(C)nc2c(c(C#N)cn2Cc2ccccc2)c1-c1ccc([N+](=O)[O-])cc1 | > 100 µM | > 100 µM | > 100 µM | 6.3 µM | 0.19 µM | >100 | Ratio IC50 [7]: 2.4; Ratio IC50 [8]: 9.4; Ratio IC50 [9]: 12; IC50 [11]: 15 µM; IC50 [12]: > 100 µM; IC50 [13]: 59 µM
CC1(C)CC(=O)c2cc3c(C#N)cn(Cc4ccccc4)c3nc2C1 | > 100 µM | 3.7 µM | > 100 µM | 12 µM | 0.91 µM | >100 | 
Cc1cccc(C)c1-c1c2c(nc3c1c(C#N)cn3Cc1ccccc1)CC(C)(C)CC2=O |  |  |  | 26 µM | > 100 µM |  | 
CCCCn1cc(C#N)c2c(-c3ccc(C(F)(F)F)cc3F)c3c(nc21)-c1ccccc1C3=O | > 100 µM | 48 µM | 6.8 µM | 0.58 µM | 0.83 µM | >100 | Ratio IC50 [7]: 49; IC50 [11]: 28 µM; IC50 [12]: > 100 µM; IC50 [13]: > 100 µM
CC1(C)CC(=O)c2c(nc3c(c(C#N)cn3Cc3ccccc3)c2-c2cccc(Cl)c2)C1 |  |  |  | 58 µM | 1 µM |  | 
CC(=O)c1cc2c(-c3ccc(N(C)C)cc3)c3c(nc2[nH]1)-c1ccccc1C3=O | > 100 µM | 24 µM | 11 µM | 15 µM | 0.93 µM | >100 | 
N#Cc1cn(Cc2ccccc2)c2ncc(Br)cc12 | > 100 µM | > 100 µM | > 100 µM | > 100 µM | 0.47 µM | >100 | 
Cc1ccnc2c1NC(=O)c1cccnc1N2C1CC1 [NEVIRAPINE] |  |  |  |  | 0.04 µM |  | CC50 at 168 h [14]: > 100 µM; CC50 at 168 h [15]: > 100 µM; CC50 at 168 h [16]: > 100 µM
CC(C)(C)n1cc(C#N)c2cc(C=O)cnc21 | > 100 µM | > 100 µM | 8.1 µM | 14 µM | 0.49 µM | >100 | 
CC1(C)CC(=O)c2c(nc3c(c(C#N)cn3Cc3ccccc3)c2-c2ccc(F)cc2)C1 |  |  |  | 2.9 µM |  |  | 
CC1(C)CC(=O)c2c(nc3c(c(C#N)cn3Cc3ccccc3)c2-c2c(F)cccc2F)C1 |  |  |  | 0.36 µM | 0.46 µM |  | 
CC1(C)CC(=O)c2c(nc3c(c(C#N)cn3Cc3ccccc3)c2-c2ccc([N+](=O)[O-])cc2)C1 |  |  |  | 1.4 µM |  |  | 
Cc1ccc(-c2cnc3c(c2)c(C#N)cn3Cc2ccccc2)cc1 | > 100 µM | > 100 µM | 8.1 µM | > 100 µM | 0.49 µM | >100 | 
O=C1Nc2ccc(Cl)cc2[C@@](C#CC2CC2)(C(F)(F)F)O1 [EFAVIRENZ] | > 100 µM | > 100 µM | > 100 µM |  |  |  | 
CCCc1c2c(nc3c1c(C#N)cn3C1CCCCC1)CCC2=O | > 100 µM | > 100 µM | > 100 µM | > 100 µM | 0.69 µM | >100 | 
